According to patent publication US20070006551A1, “Method and apparatus for sterilizing and filling containers” (priority 2005, published 2007):
“And” between values parts separate entries of the source, which are not always exact repeats. Equal entries are not always repeated. Where two headings read alike, the source gives them in different places.

Experiments:
[1] = tested on: B. subtilis var. globigii (ATCC. 9372); details: 50° C.; for bacteriocidal effect (in words): Table Two conditions; for CFU/Swab / logCFU/Swab / Average (logCFU/Swab) / Log reduction: Table Two; for CFU/Swab / logCFU/Swab: contact times as in the label, one value per replicate; for Average (logCFU/Swab): mean of replicates; for Log reduction: versus inoculated untreated control (6.66)
Method: (§1) The experiments were designed to identify the conditions optimal for polymer sterilization and also explore the boundary areas to determine the conditions limiting the efficacy of the treatment. Each polymer strip was inoculated by drop spotting approximately 100 micro-liters and coating the surface by swabbing the surface of the polyethylene strip. The culture was allowed to dry before sterilization. Each strip of polyethylene was treated by vigorously agitating the strip in the appropriate treatment solutions. Each treated polymer strip was then treated with catalase to inactivate residual peroxide, swabbed and plated using TGE incubated at 35° C. for two days.
A log measurement value is provided below each of the non-log values. The sterilization was conducted at 50° C.

[2] = tested on: B. subtilis var. globigii (ATCC. 9372)
Method: as §1
Five replicate polymer strips were used for each of the two methods of the present invention. A log measurement value is provided below each of the non-log values. The first method uses hydrogen peroxide first and then an alkaline solution of sodium hydroxide. The second method uses an alkaline solution of sodium hydroxide first and then hydrogen peroxide. The sterilization was conducted at 50° C.
In Table Three, a solution of 0.1 Normal potassium hydroxide (KOH) was utilized with a solution of 3% hydrogen peroxide at a temperature of 35° C. for 30 seconds.

[3] = Table Three, 35° C. for 30 seconds, one value per replicate

Compound	bacteriocidal effect (in words) [1]	CFU/Swab [1]	logCFU/Swab [1]	Average (logCFU/Swab) [1]	Log reduction [1]	other results
OO [50° C. 30 s 3.5% H2O2 10 s catalase, hydrogen peroxide]	no effect	4,200,000 CFU/Swab and 4,000,000 CFU/Swab and 3,000,000 CFU/Swab and 5,000,000 CFU/Swab and 1,600,000 CFU/Swab	6.20 logCFU/Swab and 6.62 logCFU/Swab and 6.60 logCFU/Swab and 6.48 logCFU/Swab and 6.70 logCFU/Swab	6.52	0.14	–
OO [50° C. 30 s 35% H2O2 10 s catalase, hydrogen peroxide]	–	570 CFU/Swab and 20 CFU/Swab and 270 CFU/Swab and 2700 CFU/Swab and 40 CFU/Swab	1.60 logCFU/Swab and 2.76 logCFU/Swab and 1.30 logCFU/Swab and 2.43 logCFU/Swab and 3.43 logCFU/Swab	2.30	4.35	rate of inactivation ([1]; thirty second treatment): 1.45 log per 10 seconds of treatment; Log reduction ([1]; listed as thirty second hydrogen peroxide treatment (column 4)): 4.35
[Na+].[OH-] [50° C. 10 s 0.25M NaOH Control, sodium hydroxide]	no bacteriocidal effect	3,800,000 CFU/Swab and 7,900,000 CFU/Swab and 5,400,000 CFU/Swab and 6,300,000 CFU/Swab	6.80 logCFU/Swab and 6.58 logCFU/Swab and 6.90 logCFU/Swab and 6.73 logCFU/Swab	6.75	–	–
[Na+].[OH-] [1M NaOH Control, sodium hydroxide]	–	–	–	–	–	CFU/Swab ([2]; Table One, 50° C., survivors after treatment, inoculum 10^6, one value per replicate strip): 5,700 CFU/Swab and 210 CFU/Swab; logCFU/Swab ([2]; Table One, 50° C., survivors after treatment, one value per replicate strip): 3.76 logCFU/Swab and 2.32 logCFU/Swab
OO [H2O2 Control, hydrogen peroxide]	–	–	–	–	–	CFU/Swab [2, 3]: 5,200,000 CFU/Swab; logCFU/Swab [2, 3]: 6.72 logCFU/Swab
